The supplement of paper PMC5908809

Tests used:
[1] = system: normal NK cells expanded with K562-aAPC; assay: percent inhibition of viability; higher = more inhibition; settings: 72 h, IL-2 2.5 ng/mL
Method: (§1)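 Drug sensitivity and resistance testing on K562-aAPC-expanded normal NK cells: 5 concentrations (10-fold steps over a 10,000-fold range), 72 h at 37 °C, viability by CellTiter-Glo normalised to DMSO and benzethonium chloride controls; DSS from the fitted curve.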

DERL-7 (IL-2 2.5 ng/mL) [2] = assay: as above; settings: 72 h
IMC-1 (IL-2 20 ng/mL) [3] = assay: as above; settings: 72 h
KAI3 (IL-2 2.5 ng/mL) [4] = assay: as above; settings: 72 h
KHYG-1 (IL-2 2.5 ng/mL) [5] = assay: as above; settings: 72 h
NK-92 (IL-2 2.5 ng/mL) [6] = assay: as above; settings: 72 h
NK-YS (IL-2 2.5 ng/mL) [7] = assay: as above; settings: 72 h
NKL (IL-2 2.5 ng/mL) [8] = assay: as above; settings: 72 h
SNK-6 (IL-2 2.5 ng/mL) [9] = assay: as above; settings: 72 h
YT (IL-2 2.5 ng/mL) [10] = assay: as above; settings: 72 h
[11] = system: normal primary NK cells, pool 1 (3 donors) (IL-2 2.5 ng/mL); assay: as above; settings: 72 h
[12] = system: normal primary NK cells, pool 1 (3 donors), resting (IL-2 0 ng/mL); assay: as above; settings: 72 h
[13] = system: normal primary NK cells, pool 2 (3 donors) (IL-2 2.5 ng/mL); assay: as above; settings: 72 h
[14] = system: normal primary NK cells, pool 3 (3 donors) (IL-2 2.5 ng/mL); assay: as above; settings: 72 h
[15] = system: normal NK cells expanded with K562-aAPC; assay: drug sensitivity score (DSS) (DSS units); higher = more sensitive; extreme values may be limits of the assay; settings: 72 h; IL-2 2.5 ng/mL
Method: as §1

DERL-7 (IL-2 2.5 ng/mL) [16] = assay: as above; settings: 72 h
IMC-1 (IL-2 20 ng/mL) [17] = assay: as above; settings: 72 h
KAI3 (IL-2 2.5 ng/mL) [18] = assay: as above; settings: 72 h
KHYG-1 (IL-2 2.5 ng/mL) [19] = assay: as above; settings: 72 h
NK-92 (IL-2 2.5 ng/mL) [20] = assay: as above; settings: 72 h
NK-YS (IL-2 2.5 ng/mL) [21] = assay: as above; settings: 72 h
NKL (IL-2 2.5 ng/mL) [22] = assay: as above; settings: 72 h
SNK-6 (IL-2 2.5 ng/mL) [23] = assay: as above; settings: 72 h
YT (IL-2 2.5 ng/mL) [24] = assay: as above; settings: 72 h
[25] = system: normal primary NK cells, pool 1 (3 donors) (IL-2 2.5 ng/mL); assay: as above; settings: 72 h
[26] = system: normal primary NK cells, pool 1 (3 donors), resting (IL-2 0 ng/mL); assay: as above; settings: 72 h
[27] = system: normal primary NK cells, pool 2 (3 donors) (IL-2 2.5 ng/mL); assay: as above; settings: 72 h
[28] = system: normal primary NK cells, pool 3 (3 donors) (IL-2 2.5 ng/mL); assay: as above; settings: 72 h

In the case of CC/C(=C(\c1ccccc1)c1ccc(OCCN(C)C)cc1)c1ccccc1 [Tamoxifen] (max concentration tested 10000 nM), the “percent inhibition of viability” value ([1]; 1 nM) is reported as -7.94%, the “percent inhibition of viability” value ([1]; 10 nM) is reported as -6.09% and the “percent inhibition of viability” value ([1]; 100 nM) is reported as -3.11%. For the same compound, the “percent inhibition of viability” value ([1]; 1000 nM) was 5.82%, the “percent inhibition of viability” value ([1]; 10000 nM) was 37.2% and the “percent inhibition of viability” value (DERL-7 (IL-2 2.5 ng/mL) [2]; 1 nM) was 1.51%. The “percent inhibition of viability” value (DERL-7 (IL-2 2.5 ng/mL) [2]; 10 nM) was 5.51%, the “percent inhibition of viability” value (DERL-7 (IL-2 2.5 ng/mL) [2]; 100 nM) was 6.94% and the “percent inhibition of viability” value (DERL-7 (IL-2 2.5 ng/mL) [2]; 1000 nM) was 12.4%. The “percent inhibition of viability” value (DERL-7 (IL-2 2.5 ng/mL) [2]; 10000 nM) was 58.1%, the “percent inhibition of viability” value (IMC-1 (IL-2 20 ng/mL) [3]; 1 nM) was 2.26% and the “percent inhibition of viability” value (IMC-1 (IL-2 20 ng/mL) [3]; 10 nM) was 1.26%. For the same compound, the “percent inhibition of viability” value (IMC-1 (IL-2 20 ng/mL) [3]; 100 nM) was 1.8%, the “percent inhibition of viability” value (IMC-1 (IL-2 20 ng/mL) [3]; 1000 nM) was 5.99% and the “percent inhibition of viability” value (IMC-1 (IL-2 20 ng/mL) [3]; 10000 nM) was 14.7%. The “percent inhibition of viability” value (KAI3 (IL-2 2.5 ng/mL) [4]; 1 nM) was -0.42%, the “percent inhibition of viability” value (KAI3 (IL-2 2.5 ng/mL) [4]; 10 nM) was -4.09% and the “percent inhibition of viability” value (KAI3 (IL-2 2.5 ng/mL) [4]; 100 nM) was 3.87%. The “percent inhibition of viability” value (KAI3 (IL-2 2.5 ng/mL) [4]; 1000 nM) was 8.65%, the “percent inhibition of viability” value (KAI3 (IL-2 2.5 ng/mL) [4]; 10000 nM) was 100% and the “percent inhibition of viability” value (KHYG-1 (IL-2 2.5 ng/mL) [5]; 1 nM) was -5.57%. The “percent inhibition of viability” value (KHYG-1 (IL-2 2.5 ng/mL) [5]; 10 nM) was -6.4%, the “percent inhibition of viability” value (KHYG-1 (IL-2 2.5 ng/mL) [5]; 100 nM) was 1.61% and the “percent inhibition of viability” value (KHYG-1 (IL-2 2.5 ng/mL) [5]; 1000 nM) was 13.7%. The “percent inhibition of viability” value (KHYG-1 (IL-2 2.5 ng/mL) [5]; 10000 nM) was 44.6%, the “percent inhibition of viability” value (NK-92 (IL-2 2.5 ng/mL) [6]; 1 nM) was -11.7% and the “percent inhibition of viability” value (NK-92 (IL-2 2.5 ng/mL) [6]; 10 nM) was -1.59%. For the same compound, the “percent inhibition of viability” value (NK-92 (IL-2 2.5 ng/mL) [6]; 100 nM) was -5.3%, the “percent inhibition of viability” value (NK-92 (IL-2 2.5 ng/mL) [6]; 1000 nM) was 2.31% and the “percent inhibition of viability” value (NK-92 (IL-2 2.5 ng/mL) [6]; 10000 nM) was 75.2%. For the same compound, the “percent inhibition of viability” value (NK-YS (IL-2 2.5 ng/mL) [7]; 1 nM) was -7.45%, the “percent inhibition of viability” value (NK-YS (IL-2 2.5 ng/mL) [7]; 10 nM) was -5.92% and the “percent inhibition of viability” value (NK-YS (IL-2 2.5 ng/mL) [7]; 100 nM) was -3.79%. The “percent inhibition of viability” value (NK-YS (IL-2 2.5 ng/mL) [7]; 1000 nM) was 2.63%, the “percent inhibition of viability” value (NK-YS (IL-2 2.5 ng/mL) [7]; 10000 nM) was 33.2% and the “percent inhibition of viability” value (NKL (IL-2 2.5 ng/mL) [8]; 1 nM) was -6.42%. The “percent inhibition of viability” value (NKL (IL-2 2.5 ng/mL) [8]; 10 nM) was -9.93%, the “percent inhibition of viability” value (NKL (IL-2 2.5 ng/mL) [8]; 100 nM) was 0.08% and the “percent inhibition of viability” value (NKL (IL-2 2.5 ng/mL) [8]; 1000 nM) was 21.2%. The “percent inhibition of viability” value (NKL (IL-2 2.5 ng/mL) [8]; 10000 nM) was 73.4%, the “percent inhibition of viability” value (SNK-6 (IL-2 2.5 ng/mL) [9]; 1 nM) was -6.58% and the “percent inhibition of viability” value (SNK-6 (IL-2 2.5 ng/mL) [9]; 10 nM) was -17.5%. For the same compound, the “percent inhibition of viability” value (SNK-6 (IL-2 2.5 ng/mL) [9]; 100 nM) was -11.6%, the “percent inhibition of viability” value (SNK-6 (IL-2 2.5 ng/mL) [9]; 1000 nM) was -6.09% and the “percent inhibition of viability” value (SNK-6 (IL-2 2.5 ng/mL) [9]; 10000 nM) was 51.8%. The “percent inhibition of viability” value (YT (IL-2 2.5 ng/mL) [10]; 1 nM) was -0.53%, the “percent inhibition of viability” value (YT (IL-2 2.5 ng/mL) [10]; 10 nM) was -2.4% and the “percent inhibition of viability” value (YT (IL-2 2.5 ng/mL) [10]; 100 nM) was 0.91%. The “percent inhibition of viability” value (YT (IL-2 2.5 ng/mL) [10]; 1000 nM) was 3.43%, the “percent inhibition of viability” value (YT (IL-2 2.5 ng/mL) [10]; 10000 nM) was 58.4% and the “percent inhibition of viability” value ([11]; 1 nM) was 1.45%. The “percent inhibition of viability” value ([11]; 10 nM) was 8.11%, the “percent inhibition of viability” value ([11]; 100 nM) was 7.67% and the “percent inhibition of viability” value ([11]; 1000 nM) was 12.3%. For the same compound, the “percent inhibition of viability” value ([11]; 10000 nM) was 89.6%, the “percent inhibition of viability” value ([12]; 1 nM) was 2.3% and the “percent inhibition of viability” value ([12]; 10 nM) was 22%. The “percent inhibition of viability” value ([12]; 100 nM) was 15.1%, the “percent inhibition of viability” value ([12]; 1000 nM) was 20.6% and the “percent inhibition of viability” value ([12]; 10000 nM) was 90.1%. For the same compound, the “percent inhibition of viability” value ([13]; 1 nM) was -3.62%, the “percent inhibition of viability” value ([13]; 10 nM) was 2.15% and the “percent inhibition of viability” value ([13]; 100 nM) was -3.66%. The “percent inhibition of viability” value ([13]; 1000 nM) was 4.91%, the “percent inhibition of viability” value ([13]; 10000 nM) was 68.8% and the “percent inhibition of viability” value ([14]; 1 nM) was -1.03%. For the same compound, the “percent inhibition of viability” value ([14]; 10 nM) was 0.09%, the “percent inhibition of viability” value ([14]; 100 nM) was 5.67% and the “percent inhibition of viability” value ([14]; 1000 nM) was -1.54%. For the same compound, the “percent inhibition of viability” value ([14]; 10000 nM) was 30.3%, the drug sensitivity score [15] was 2.77 and the drug sensitivity score (DERL-7 (IL-2 2.5 ng/mL) [16]) was 5.15. The drug sensitivity score (IMC-1 (IL-2 20 ng/mL) [17]) was 0.37, the drug sensitivity score (KAI3 (IL-2 2.5 ng/mL) [18]) was 6.93 and the drug sensitivity score (KHYG-1 (IL-2 2.5 ng/mL) [19]) was 4.33. For the same compound, the drug sensitivity score (NK-92 (IL-2 2.5 ng/mL) [20]) was 4.46, the drug sensitivity score (NK-YS (IL-2 2.5 ng/mL) [21]) was 1.92 and the drug sensitivity score (NKL (IL-2 2.5 ng/mL) [22]) was 7.22. It also gave a drug sensitivity score (SNK-6 (IL-2 2.5 ng/mL) [23]) of 2.32, a drug sensitivity score (YT (IL-2 2.5 ng/mL) [24]) of 3.65 and a drug sensitivity score [25] of 7.04. It also gave a drug sensitivity score [26] of 8.03, a drug sensitivity score [27] of 4.53 and a drug sensitivity score [28] of 1.21.
